From paper PMC8596838, “Xylose‐Configured Cyclophellitols as Selective Inhibitors for Glucocerebrosidase” (Chembiochem, 2021)

Target: T1, rhGBA (recombinant human GBA, Imiglucerase) (Homo sapiens, UniProt P04062, R534H)
T1 construct: purchased Sanofi Genzyme (Cambridge, MA, USA)
T1 sequence (P04062 40-536 R534H): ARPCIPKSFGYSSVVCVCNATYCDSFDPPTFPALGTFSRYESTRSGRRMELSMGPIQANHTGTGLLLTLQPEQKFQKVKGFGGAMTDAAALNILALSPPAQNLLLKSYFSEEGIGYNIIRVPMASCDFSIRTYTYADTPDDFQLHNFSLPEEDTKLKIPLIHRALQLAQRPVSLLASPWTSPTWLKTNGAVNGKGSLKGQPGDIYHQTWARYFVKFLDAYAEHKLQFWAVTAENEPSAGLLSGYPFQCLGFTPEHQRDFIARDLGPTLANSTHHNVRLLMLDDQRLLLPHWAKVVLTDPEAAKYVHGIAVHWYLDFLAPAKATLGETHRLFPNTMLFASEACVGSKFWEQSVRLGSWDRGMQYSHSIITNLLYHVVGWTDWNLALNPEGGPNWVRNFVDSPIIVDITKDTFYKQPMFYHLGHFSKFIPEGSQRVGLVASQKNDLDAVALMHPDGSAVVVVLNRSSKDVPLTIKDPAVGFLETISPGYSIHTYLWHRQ
Test: Fluorogenic substrate (4-MU-β-D-glucoside) enzymatic assay, rhGBA
Assay type: biochemical
Conditions: for IC50: incubation time 30 min, enzymatic assay, ±SD, n=3, read-out: In vitro apparent IC50 rhGBA
Method: Using fluorogenic substrate‐based assays, we determined apparent IC50 values at 30 min incubation time of the xylo‐cyclophellitols in rhGBA, and GBA2 and GBA3 lysates of cells expressing only each of the enzymes specifically.
Enzyme activity assays: All assays were performed with lysates of HEK293T cells or zebrafish larvae in 96‐well plates at 37 °C. Samples were diluted with McIlvaine buffer (150 mM citric acid‐Na2HPO4) to a final volume of 25 μL, at pH appropriate for each enzyme. Assays were performed by incubating the samples with 100 μL 4‐methylumbelliferyl‐β‐D‐glucoside substrates diluted in McIlvaine buffer (with 0.1 % (w/v) bovine serum albumin (BSA)) for a period of 30 min or 3 h. The substrate mixtures used for each enzyme were as follows: GBA, 3.75 mM 4‐MU‐β‐D‐glucopyranoside (Glycosynth, Warrington Cheshire, UK) at pH 5.2, supplemented with 0.2 % (w/v) sodium taurocholate, 0.1 % (v/v) Triton X‐100, 0.1 % (w/v) bovine serum albumin (BSA); GBA2, 3.75 mM 4 MU‐β‐D‐glucopyranoside at pH 5.8; GBA3, 3.75 mM 4‐MU‐β‐D‐glucopyranoside at pH 6.0. After stopping the enzyme reaction with 200 μL 1 M NaOH‐glycine (pH 10.3), 4‐methylumbelliferone fluorescence was measured with a fluorimeter LS55 (Perkin Elmer, Waltham, MA, USA) with λEX 366 nm and λEM 445 nm. Enzyme activities were determined by subtraction of background (measured for incubations without enzyme). IC50 values were determined exactly as earlier described.[36]
The IC50 values were determined using a fluorogenic enzymatic assay. For GBA, 3.16 ng (53 fmol) of rhGBA, (recombinant human GBA, Imiglucerase) obtained from Sanofi Genzyme (Cambridge, MA, USA), was prepared in 12.5 μL McIlvaine buffer (150 mM, pH 5.2) supplemented with 0.1 % (v/v) Triton X‐100, and 0.2 % (w/v) sodium taurocholate, 0.1 % (w/v) bovine serum albumin (BSA). The enzyme was incubated with 12.5 μL of inhibitors diluted in McIlvaine buffer (150 mM, pH 5.2) at 37 °C for 30 min. In the case of GBA2 or GBA3, lysates of GBA/GBA2 KO HEK293T cells overexpressing GBA2 or GBA3, respectively where used. The enzymatic activity of GBA, GBA2 and GBA3 were measured with 4MU‐β‐D‐glucoside substrate as described above.

Row | Structure (SMILES) | IC50 [nM] | potency against GBA compared to unsubstituted xylo-cyclophellitol aziridine 2 (in vitro, 30 min) [fold]
1 | CN1/C(=C/C=C/C=C/C2=[N+](CCCCCC(=O)NCc3cn(CCCCCCCCN4[C@H]5[C@H](O)[C@@H](O)[C@H](O)C[C@H]54)nn3)c3ccccc3C2(C)C)C(C)(C)c2ccccc21 (some centres unmarked) [ABP 6] | 6.44 ± 0.49 | –
2 | CN1/C(=C/C=C/C=C/C2=[N+](CCCCCC(=O)NCc3cn(C[C@@H]4[C@@H](O)[C@H](O)[C@@H](O)[C@@H]5O[C@H]45)nn3)c3ccccc3C2(C)C)C(C)(C)c2ccccc21 [ABP 9, reference compound] | 45.2 ± 4.54 | –
3 | O[C@@H]1[C@@H](O)[C@H](O)C[C@H]2O[C@@H]12 [compound 1, xylo‐cyclophellitol] | 2670 ± 94.5 | –
4 | O[C@@H]1[C@@H](O)[C@H](O)C[C@H]2N[C@@H]12 [compound 2, β‐D‐xylo‐Cyclophellitol aziridine] | 719 ± 196 | –
5 | OC[C@@H]1[C@@H](O)[C@H](O)[C@@H](O)[C@@H]2O[C@H]12 [compound 3, cyclophellitol] | 400 ± 12.4 | –
6 | OC[C@@H]1[C@@H](O)[C@H](O)[C@@H](O)[C@@H]2N[C@H]12 [compound 4, cyclophellitol aziridine, reference compound] | 341 ± 5.82 | –
7 | [N-]=[N+]=NCCCCCCCCN1[C@H]2[C@H](O)[C@@H](O)[C@H](O)C[C@H]21 (some centres unmarked) [compound 5] | 1.2 ± 0.06 | 600
